Entries after “also recorded” stand apart in the source; their conditions may differ.
Experiments:
[1] = system: stereotypies induced by amphetamine; assay: Interaction with amphetamine (rats); format: in vivo; conditions: i.p.; amphetamine 2 mg/kg
Procedure: (§1) The results of toxicological and neuropsychopharmacological tests which were carried out with the products according to the invention have been summarized below. In these tests, solutions of the said products in distilled water were administered intraperitoneally in a volume of 20 ml/kg to male mice and in a volume of 5 ml/kg to male rats.
(§2) Amphetamine (2 mg/kg) is injected intraperitoneally into groups of 6 rats 30 minutes after the administration of CRL 41 378.

mice [2] = assay: Traction; format: in vivo; conditions: i.p.
Procedure: as §1
(§3) The test is performed on groups of 10 mice 30 minutes after the administration of CRL 41 378.

mice [3] = assay: Electric shock; format: in vivo; conditions: i.p.
Procedure: as §1, §3

anesthetized dogs = assay: Cardiovascular study in anesthetized dogs; format: in vivo; conditions: for effects of isoprenaline: isoprenaline 10 μg/kg; for hypertension induced by norepinephrine: norepinephrine 2 μg/kg
Procedure: Groups of 2 adult dogs (each weighing 10 to 18 kg), anesthetized with nembutal, receive each test product (i) by intraduodenal administration at successive doses of 0.1 mg/kg, 0.5 mg/kg, 1 mg/kg, 2.5 mg/kg, 5 mg/kb, 10 mg/kg and 20 mg/kg, and then (ii) if appropriate, by intravenous administration at a dose of 10 mg/kg. The effects of 10 μg/kg of isoprenaline and/or 2 μg/kg of norepinephrine after the intraduodenal administration of a cumulative dose of 39.1 mg/kg are also assessed.
The following are measured: the total arterial blood pressure, the diastolic arterial blood pressure, the heart rate, the blood flows through the femoral and cerebral arteries and saphenous veins, the rectal temperature, the skin temperature and the pressure of the gases (essentially O2) dissolved in the arterial blood.

[4] = system: trembling and head twitches induced by 5-hydroxytryptophan (5-HTP); assay: Interaction with 5-hydroxytryptophan in association with an MAOI (nialamide); format: in vivo, male mice; conditions: for head twitches / partial trembling: i.p., nialamide + (±)-5-HTP
In short: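 Male mice (groups of 10) got nialamide 20 mg/kg intragastric at T-18 h, test product i.p. in water at T-0.5 h, then (±)-5-HTP 20 mg/kg i.p. at T. Generalized trembling, partial trembling and head twitches scored yes/no over 2 h.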

pH of aqueous solution = format: physicochemical
Procedure: The tests were carried out in solution in water at pH 4.0-5.5. The pH of the aqueous solution of CRL 41 378 varies according to the concentration: it is 4.0 at a concentration of 50 g/l, 4.5 at 12.5 g/l, 5.0 at 0.8 g/l and 5.5 at CRL 41 378 concentrations less than or equal to 0.2 g/l.

[5] = system: stereotypies induced by amphetamine; assay: Interaction with amphetamine (mice as printed); format: in vivo; conditions: in mice (so in the source), i.p.
Procedure: as §2
Using the procedures given above, the following results were obtained with a solution of CRL 41 382 in water at pH 6.

mice [6] = assay: Behavioral despair (forced immersion); format: in vivo; conditions: mice which have been forcibly immersed, i.p.; hydrochloride
Procedure: as §1
Half an hour after they have received CRL 41 378, groups of 6 mice are placed in a beaker filled with water to a height of 6 cm. The total period of immobility between the 2nd and 6th minutes following immersion is noted.

Row | Structure (SMILES) | motor incoordination / incapacity (mice [2]) | lethal effects of electric shock (mice [3]) | rectal temperature (anesthetized dogs) | skin temperature (anesthetized dogs) | arterial blood pressure (anesthetized dogs; intraduodenal) | arterial blood pressure (anesthetized dogs; intravenous) | effects of isoprenaline (anesthetized dogs) | hypertension induced by norepinephrine (anesthetized dogs) | analogy with β-adrenergic stimulants in the 5-HTP procedure ([4]; 5-HTP + MAOI) | head twitches ([4]; male mice) | partial trembling ([4]; male mice) | also measured
1 | CC(=O)N1C=NCC(c2ccccc2)C1.Cl (centres unmarked) [CRL 41 378, 1-acetyl-5-phenyl-1,4,5,6-tetrahydropyrimidine hydrochloride] | does not cause motor incoordination | At the two highest doses studied (16 and especially 64 mg/kg), CRL 41 378 strongly aggravates the lethal effects of electric shock | increases the rectal temperature | does not cause a distinct modification of the skin temperature | no effect on the arterial blood pressure by intraduodenal administration | hypotensive by intravenous administration | decreases the effects of isoprenaline on the heart rate | decreases the hypertension induced by norepinephrine | more closely resembles fenoterol | moderately potentiates the head twitches | distinctly potentiates the partial trembling | action on stereotypies induced by amphetamine [1]: at the highest dose used (32 mg/kg), CRL 41 378 potentiates the stereotypies induced by amphetamine; convulsant effects of electric shock (mice [3]): without modifying the convulsant effects; intensity of potentiation of 5-HTP effects ([4]; higher doses, 5-HTP + MAOI, male mice): the potentiation being very intense as from a dose of 16 mg/kg; pH of the aqueous solution (pH of aqueous solution; 0.8 g/l): 5.0; pH of the aqueous solution (pH of aqueous solution; 12.5 g/l): 4.5; pH of the aqueous solution (pH of aqueous solution; 50 g/l): 4.0; pH of the aqueous solution (pH of aqueous solution; less than or equal to 0.2 g/l): 5.5
2 | Cl.OC1(c2ccccc2)CN=CNC1 (centres unmarked) [CRL 41 382, 5-hydroxy-5-phenyl-1,4,5,6-tetrahydropyrimidine hydrochloride] | does not cause major motor incapacity | aggravates (at a dose of 64 mg/kg) the lethal effects of electric shock | increases the rectal temperature | decreases the blood flows through the femoral and vertebral arteries and also the skin temperature | hypertensive | hypotensive | does not modify the effects of isoprenaline | increases the hypertension caused by norepinephrine | more closely resembles ritodrine or salbutamol | practically no modification of the head twitches | moderate potentiation of the partial trembling | action on stereotypies induced by amphetamine [5]: practically no modification of the stereotypies induced by amphetamine; convulsant effects of electric shock (mice [3]; hydrochloride): does not oppose the convulsant effects; also recorded: absence of any anticonvulsant action; period of immobility (mice [6]): does not modify the period of immobility; also recorded: absence of antagonism of the immobility due to "despair"; α-adrenergic stimulant effect (anesthetized dogs): seems to have an α-adrenergic stimulant effect; heart rate (anesthetized dogs; intraduodenal): practically no effect on the heart rate; heart rate (anesthetized dogs; intravenous): bradycardic

Source: patent publication US4774248A, “Methods of treating depression and depressive states using 5-phenyl-1,4,5,6-tetrahydropyrimidine derivatives” (priority 1985, dated 1988)
